Ends that are not written are not given here.
Target: GII.3 VLP (norovirus GII.3 TCH strain)
Test: BLI (BLItz), biotin peptide on SA chip, GII.3 VLP at 1 and 0.1 mg/mL
Details: not given

Molecule	Kd [µM]	koff [s⁻¹]	kon [M⁻¹ s⁻¹]
GKFFCH (also: spacer with Trp and biotin, letters and position not given here) [peptide of SEQ ID NO: 21, synthesized, with spacer sequence and biotin]	107	0.0382	358
VMMQCP (also: spacer with Trp and biotin, letters and position not given here) [peptide of SEQ ID NO: 28, synthesized, with spacer sequence and biotin]	218	0.05	230
GRRYYI (also: spacer with Trp and biotin, letters and position not given here) [peptide of SEQ ID NO: 1, synthesized, with spacer sequence and biotin]	6.01	0.0546	9070

System: norovirus VLPs (GII.4, GII.3, GII.17)
Test: In vitro selection by cDNA display against VLPs with appearance frequency analysis of sequences
Details: count among peptide aptamer sequences obtained after in vitro selection cycles (7 cycles GII.4, 5 cycles GII.3 and GII.17)
Method: The constructed cDNA display and VLPs were incubated in 100 μL of a dialysis selection buffer (20 mM HEPES (pH 7.4), 150 mM NaCl, and 0.05% s Tween 20) at the concentrations shown in Table 9 below at 25° C. for 30 minutes. Subsequently, the resultant was diluted to 1 mL with the dialysis selection buffer, and was put in Float-A-Lyzer G2 Dialysis Device CE, 1000kD MWCO (manufactured by Spectrum Laboratories, Inc.) and was dialyzed with 1 L of the dialysis selection buffer as the external solution at 25° C. During the dialysis, the external solution was replaced with new one 3 times every 2 hours, and the dialysis was performed overnight (for 8 hours) after the 4th replacement. The dialysis product was concentrated with Amicon Ultra 100K (manufactured by Merck Millipore S.A.S.) at 14,000×g for 5 minutes.
To an immunoplate (C-BOTTOM, CLEAR, MICROLON (registered trademark), HIGH BINDING, manufactured by Greiner Bio-One), 100 μL of 3 μg/mL GII.3 or GII.17 VLP solution was added and immobilization was performed at 4° C. overnight. Subsequently, the solution was discarded, and 200 μL of a blocking agent (EMD Millipore™ Blok™ NSB Blocking agents, Thermo Fisher Scientific) was added, followed by gently stirring at room temperature for 2 hours for blocking. On this occasion, wells not immobilizing the VLP were also subjected to similar blocking to be used in preselection.
The solution was discarded from the wells, the wells were washed with 200 μL of a wash buffer (10 mM Hepes (pH 7.4), 150 mM NaCl, and 0.05% Tween 20) three times, and 100 μL of cDNA display (constructed from 1.5 pmol of mRNA-linker) was then put in the wells not immobilizing the VLP, followed by gently stirring at room temperature for 30 minutes to perform preselection. Subsequently, the supernatant containing cDNA display that had not bound to the blocking agent was put in the wells immobilizing the VLP, followed by gently stirring at room temperature for 30 minutes to be bound to the VLP. The supernatant was discarded, washing with 100 μL of the wash buffer was performed four times, and 100 μL of a 5′ SDS solution was then added, followed by incubation at 50° C. for 15 minutes to elute the bound cDNA display.
Subsequently, the VLP-cDNA display complex obtained above was diluted to 100 μL with a dialysis selection buffer, and 10 μL of a coprecipitating agent (Quick-Precip Plus Solution, manufactured by EdgeBio) and 220 μL of 100% ethanol were added, followed by centrifugation at 20,000×g for 5 minutes. Subsequently, the supernatant was discarded, and 1 mL of 70, ethanol was added for rinsing. […] The PCR program was (a) 98° C. for 2 minutes, (b) 95° C. for 20 seconds, (c) 69° C. for 20 seconds, (d) 72° C. for 20 seconds (steps (b) to (d) were performed 25 cycles), and (e) 72° C. for 1 minute.
After the in vitro selection cycle (7 cycles for GII.4 and 5 cycles for GII.3 and GII.17 based on the libraries of 7 cycles obtained by GII.4 dialysis), a sequence library was prepared by the following method, and the sequence information was analyzed. The preparation of the sequence library and the sequencing were performed according to the 16S Metagenomic Sequencing Library Preparation protocol (manufactured by Illumina, Inc.).
The Fastq file of the obtained sequence was converted to a Fasta file, all of the obtained sequences were simultaneously translated from the first base of the start codon (ATG) at position 115 to the third base of the cysteine codon (TGC) at position 156 of the library sequence (SEQ ID NO: 279) using software MEGA.

Molecule	Appearance Frequency
249 (SIITRR; Designed peptide) [compound 249]	6
98 (VVWFTD; Designed peptide) [compound 98]	8
96 (VGRFPQ; Designed peptide) [compound 96]	8
33 (SRHCVP; Designed peptide) [compound 33]	11
78 (GQRLTV; Designed peptide) [compound 78]	8
145 (RRRTFH; Designed peptide) [compound 145]	7
85 (LHMKPI; Designed peptide) [compound 85]	8
23 (LKASIR; Designed peptide) [compound 23]	12
127 (LISRHD; Designed peptide) [compound 127]	7
55 (GTRHPS; Designed peptide) [compound 55]	9
247 (SEHNRY; Designed peptide) [compound 247]	6
237 (RKCIDR; Designed peptide) [compound 237]	6
148 (RTGLLS; Designed peptide) [compound 148]	7
217 (NDHDHH; Designed peptide) [compound 217]	6
6 (FLDTLG; Designed peptide) [compound 6]	17
140 (RFVKRR; Designed peptide) [compound 140]	7
200 (IHSPQK; Designed peptide) [compound 200]	6
170 (DSKLHN; Designed peptide) [compound 170]	6
121 (ILISSC; Designed peptide) [compound 121]	7
29 (DLLNSK; Designed peptide) [compound 29]	11
91 (SSLALH; Designed peptide) [compound 91]	8
212 (MDHEMF; Designed peptide) [compound 212]	6
151 (STYRSW; Designed peptide) [compound 151]	7

Molecule	Appearance Frequency
246 (SAMFAS; Designed peptide) [compound 246]	6
135 (NRHLDP; Designed peptide) [compound 135]	7
251 (SKYTAL; Designed peptide) [compound 251]	6
52 (VRYPEI; Designed peptide) [compound 52]	10
88 (SITVLY; Designed peptide) [compound 88]	8
209 (LNDMSF; Designed peptide) [compound 209]	6
59 (MAWIGS; Designed peptide) [compound 59]	9
105 (EEMIVS; Designed peptide) [compound 105]	7
143 (RRCKLL; Designed peptide) [compound 143]	7
208 (LLGKPV; Designed peptide) [compound 208]	6
240 (RNHSRI; Designed peptide) [compound 240]	6
58 (KFSHRK; Designed peptide) [compound 58]	9
18 (SRWCLS; Designed peptide) [compound 18]	13
30 (DRYSAW; Designed peptide) [compound 30]	11
84 (LASSGH; Designed peptide) [compound 84]	8
266 (YGKQRG; Designed peptide) [compound 266]	6
223 (NSRYFT; Designed peptide) [compound 223]	6
176 (FQYAHW; Designed peptide) [compound 176]	6
163 (AFDGLG; Designed peptide) [compound 163]	6
269 (YYPDHP; Designed peptide) [compound 269]	6
199 (IGRTFH; Designed peptide) [compound 199]	6
216 (NCRTRP; Designed peptide) [compound 216]	6
159 (VYFIPD; Designed peptide) [compound 159]	7

Target: GII.3 VLP
Test: Calculation of KD value by bio-layer interferometry (BLI method)
Type: binding, norovirus
Details: BLItz, biotinylated peptide 100 μM on SA chip; GII.3 VLP 1 and 0.1 mg/mL; calculated from ka and kd
Method: <Calculation of KD Value by Bio-Layer Interferometry: BLI Method>
The apparatus used was BLItz™ (manufactured by ForteBio). The tip of SA chip (manufactured by ForteBio) was kept in contact with purified water for 1 minute for hydration and was then kept in contact with a 1% BSA aqueous solution for 1 hour for blocking. The SA chip subjected to blocking treatment was set to the measuring unit of the BLItz™ main body, and measurement was performed according to the program shown in Table 14. The peptides of SEQ ID NOs: 1, 21, and 28 were used, and the concentration was adjusted to 100 μM. The concentration of the GII.3 VLP was adjusted to 1 and 0.1 mg/mL. The measurement data were analyzed using the attached software, and the KD value was calculated based on the Ka and Kd values.

Molecule	Kd [µM]
GRRYYI [SEQ ID NO: 1]	6.01
VMMQCP [SEQ ID NO: 28]	218
GKFFCH [SEQ ID NO: 21]	107

Same assay, conditions: BLItz, peptide 100 μM on SA chip; GII.3 VLP 1 and 0.1 mg/mL

Molecule	ka [M⁻¹ s⁻¹]	kd [s⁻¹]
GRRYYI [SEQ ID NO: 1]	9070	0.0546
VMMQCP [SEQ ID NO: 28]	230	0.05
GKFFCH [SEQ ID NO: 21]	358	0.0382
